Test results: patent US10934310B2, “Inhibitors of Bruton's tyrosine kinase and method of their use” (JANSSEN PHARMACEUTICA NV, priority 2015, dated 2021)

Biological target: unphosphorylated-BTK kinase domain (UP-BTK), GST-tagged human BTK (389-659aa) (Homo sapiens (Human), UniProt Q06187)
Experiment: BTK Kinase Lanthascreen Binding Assay
Conditions: Lanthascreen binding, 60 minutes incubation; pIC50 = negative log of the IC50 in molar
Procedure: BTK Kinase Lanthascreen Binding Assay:
A BTK kinase lanthascreen binding assay monitors compound binding to unphosphorylated-BTK kinase domain (UP-BTK), by competing with a fluorescent labeled tracer. […] Data were analyzed using Xlfit™ version 5.3 from ID Business Solutions (Guildford), Microsoft Excel add-in. pIC50 refers to the negative log of the IC50 in molar.

Sequence of unphosphorylated-BTK kinase domain (UP-BTK), GST-tagged human BTK (389-659aa) (Q06187 389-659): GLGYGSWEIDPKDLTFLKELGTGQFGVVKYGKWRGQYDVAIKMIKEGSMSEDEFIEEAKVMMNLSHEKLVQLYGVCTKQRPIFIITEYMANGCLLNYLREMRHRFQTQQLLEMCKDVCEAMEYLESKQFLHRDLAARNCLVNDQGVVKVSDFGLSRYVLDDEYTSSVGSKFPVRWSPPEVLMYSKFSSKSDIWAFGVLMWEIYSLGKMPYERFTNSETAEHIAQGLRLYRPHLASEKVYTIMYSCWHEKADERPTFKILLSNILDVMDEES

| Compound | BTK_I_binding pIC50 |
| --- | --- |
| C=CC(=O)N[C@@H]1CCC[C@@H](NC(=O)c2sc3nccc4c3c2NC(=O)N4c2ccc(Oc3ccccc3)cn2)C1 (relative stereo) [Example 344, N-((1*R,3*R)-3-Acrylamidocyclohexyl)-4-oxo-5-(5-phenoxypyridin-2-yl)-4,5-dihydro-3H-1-thia-3,5,8-triazaacenaphthylene-2-carboxamide] | 6.11 |
| CCC(=O)N[C@H]1CCCC[C@H]1NC(=O)c1sc2nccc3c2c1NC(=O)N3c1cnc(Oc2ccccc2)cc1C (relative stereo) [Example 381, 5-(*S)-(4-Methyl-6-phenoxypyridin-3-yl)-4-oxo-N-((1R,2S)-2-propionamidocyclohexyl)-4,5-dihydro-3H-1-thia-3,5,8-triazaacenaphthylene-2-carboxamide] | 6.75 |

Same assay, conditions: compound, 50 nM Tracer 236, 2 nM anti-GST antibody, 60 minutes; pIC50 = negative log of the IC50 in molar

| Compound | BTK_I_binding pIC50 |
| --- | --- |
| CNC1CC[C@H](NC(=O)c2sc3nccc4c3c2NC(=O)N4c2ccc(Oc3ccccc3)cc2C)C1 (mixture of isomers) [Example 80, 5-(2-Methyl-4-phenoxyphenyl)-N-((1S)-3-(methylamino)cyclopentyl)-4-oxo-4,5-dihydro-3H-1-thia-3,5,8-triazaacenaphthylene-2-carboxamide] | 6.42 |
| Cc1cc(Oc2ccccc2)ccc1N1C(=O)Nc2c(C(=O)N[C@@H]3CCCC[C@@H]3N(C)C)sc3nccc1c23 (relative stereo) [Example 7, N-((1R,2S)-2-(Dimethylamino)cyclohexyl)-5-(*S)-(2-methyl-4-phenoxyphenyl)-4-oxo-4,5-dihydro-3H-1-thia-3,5,8-triazaacenaphthylene-2-carboxamide] | 7.31 |
| CC(=O)N[C@@H]1CC[C@H](NC(=O)c2sc3nccc4c3c2NC(=O)N4c2ccc(Oc3ccccc3)cc2C)C1 (relative stereo) [Example 88, N-((1S,3R)-3-Acetamidocyclopentyl)-5-(*S)-(2-methyl-4-phenoxyphenyl)-4-oxo-4,5-dihydro-3H-1-thia-3,5,8-triazaacenaphthylene-2-carboxamide] | 7.89 |
| CNCC(=O)N[C@H]1CCC[C@H](NC(=O)c2sc3nccc4c3c2NC(=O)N4c2ccc(Oc3ccccc3)cc2C)C1 (relative stereo) [Example 250, 5-(*S)-(2-Methyl-4-phenoxyphenyl)-N-((1R,3S)-3-(2-(methylamino)acetamido)cyclohexyl)-4-oxo-4,5-dihydro-3H-1-thia-3,5,8-triazaacenaphthylene-2-carboxamide] | 6.75 |
| C=CC(=O)N[C@H]1CC[C@@H](NC(=O)c2sc3nccc4c3c2NC(=O)N4c2ccc(Oc3ccccc3)cc2C)CC1 (single isomer, unassigned) [Example 1, N-((1S,4S)-4-Acrylamidocyclohexyl)-5-(*S)-(2-methyl-4-phenoxyphenyl)-4-oxo-4,5-dihydro-3H-1-thia-3,5,8-triazaacenaphthylene-2-carboxamide] | 7.61 |
| Cc1cc(Oc2ccccc2)ccc1N1C(=O)Nc2c(C(=O)N[C@@H]3CCCC[C@@H]3N)sc3nccc1c23 (single isomer, unassigned) [Example 5, N-((1R,2S)-2-Aminocyclohexyl)-5-(*S)-(2-methyl-4-phenoxyphenyl)-4-oxo-4,5-dihydro-3H-1-thia-3,5,8-triazaacenaphthylene-2-carboxamide] | 7.69 |
| Cc1cc(Oc2ccccc2)ccc1N1C(=O)Nc2c(C(=O)N[C@@H]3CCC[C@@H]3O)sc3nccc1c23 (single isomer, unassigned) [Example 8, N-((1R,2S)-2-Hydroxycyclopentyl)-5-(*S)-(2-methyl-4-phenoxyphenyl)-4-oxo-4,5-dihydro-3H-1-thia-3,5,8-triazaacenaphthylene-2-carboxamide] | 7.95 |
| C=CC(=O)N[C@H]1CCC[C@@H]1NC(=O)c1sc2nccc3c2c1NC(=O)N3c1ccc(Oc2ccccc2)cc1C (single isomer, unassigned) [Example 56, N-((1S,2S)-2-Acrylamidocyclopentyl)-5-(*R)-(2-methyl-4-phenoxyphenyl)-4-oxo-4,5-dihydro-3H-1-thia-3,5,8-triazaacenaphthylene-2-carboxamide] | 5.77 |
| Cc1cc(Oc2ccccc2)ccc1N1C(=O)Nc2c(C(=O)N[C@@H]3CCC[C@H]3O)sc3nccc1c23 (single isomer, unassigned) [Example 61, N-((1R,2R)-2-Hydroxycyclopentyl)-5-(*R)-(2-methyl-4-phenoxyphenyl)-4-oxo-4,5-dihydro-3H-1-thia-3,5,8-triazaacenaphthylene-2-carboxamide] | 5.36 |
| CC(=O)N[C@@H]1CCC[C@H]1NC(=O)c1sc2nccc3c2c1NC(=O)N3c1ccc(Oc2ccccc2)cc1C (single isomer, unassigned) [Example 67, N-((1R,2R)-2-Acetamidocyclopentyl)-5-(*S)-(2-methyl-4-phenoxyphenyl)-4-oxo-4,5-dihydro-3H-1-thia-3,5,8-triazaacenaphthylene-2-carboxamide] | 7.41 |
| Cc1cc(Oc2ccccc2)ccc1N1C(=O)Nc2c(C(=O)N[C@H]3CC[C@@H](O)CC3)sc3nccc1c23 (single isomer, unassigned) [Example 83, N-((1S,4S)-4-Hydroxycyclohexyl)-5-(*S)-(2-methyl-4-phenoxyphenyl)-4-oxo-4,5-dihydro-3H-1-thia-3,5,8-triazaacenaphthylene-2-carboxamide] | 7.60 |
| Cc1cc(Oc2ccccc2)ccc1N1C(=O)Nc2c(C(=O)N[C@H]3CC[C@@H](O)CC3)sc3nccc1c23 (single isomer, unassigned) [Example 84, N-((1S,4S)-4-Hydroxycyclohexyl)-5-(*R)-(2-methyl-4-phenoxyphenyl)-4-oxo-4,5-dihydro-3H-1-thia-3,5,8-triazaacenaphthylene-2-carboxamide] | 6.21 |

Same assay, conditions: read-out: BTK_I_binding pIC50 (converted)

| Compound | IC50 [nM] |
| --- | --- |
| Cc1cc(Oc2ccccc2)ccc1N1C(=O)Nc2c(C(=O)NC3CCCCC3O)sc3nccc1c23 (racemic) [Example 27, N-((1RS,2RS)-2-Hydroxycyclohexyl)-5-(2-methyl-4-phenoxyphenyl)-4-oxo-4,5-dihydro-3H-1-thia-3,5,8-triazaacenaphthylene-2-carboxamide] | 110 |
| Cc1cc(Oc2ccccc2)ccc1N1C(=O)Nc2c(C(=O)N[C@H]3CCCC[C@@H]3O)sc3nccc1c23 (racemic) [Example 36, N-((1RS,2RS)-2-Hydroxycyclohexyl)-5-(2-methyl-4-phenoxyphenyl)-4-oxo-4,5-dihydro-3H-1-thia-3,5,8-triazaacenaphthylene-2-carboxamide] | 191 |
| N[C@H]1CC[C@@H](NC(=O)c2sc3nccc4c3c2NC(=O)N4c2ccc(Oc3ccccc3)cc2)C1 (racemic) [Example 96, N-(rac-(1,3-cis)-3-Aminocyclopentyl)-4-oxo-5-(4-phenoxyphenyl)-4,5-dihydro-3H-1-thia-3,5,8-triazaacenaphthylene-2-carboxamide] | 77.6 |
| C=CC(=O)NC1CCC(NC(=O)c2sc3nccc4c3c2NC(=O)N4c2ccc(Oc3ccccc3)cc2)C1 (racemic) [Example 109, N-((1RS,3RS)-3-Acrylamidocyclopentyl)-4-oxo-5-(4-phenoxyphenyl)-4,5-dihydro-3H-1-thia-3,5,8-triazaacenaphthylene-2-carboxamide] | 14.1 |
| N[C@@H]1CC[C@@H](NC(=O)c2sc3nccc4c3c2NC(=O)N4c2ccc(Oc3ccccc3)cc2)C1 (racemic) [Example 147, trans-N-((1RS,3RS)-3-Aminocyclopentyl)-4-oxo-5-(4-phenoxyphenyl)-4,5-dihydro-3H-1-thia-3,5,8-triazaacenaphthylene-2-carboxamide] | 234 |
| C=CC(=O)N[C@@H]1CC[C@@H](NC(=O)c2sc3nccc4c3c2NC(=O)N4c2ccc(Oc3ccccc3)nc2)C1 (racemic) [Example 188, N-((1RS,3RS)-3-Acrylamidocyclopentyl)-4-oxo-5-(6-phenoxypyridin-3-yl)-4,5-dihydro-3H-1-thia-3,5,8-triazaacenaphthylene-2-carboxamide] | 77.6 |
| C=CC(=O)NC1CCC(NC(=O)c2sc3nccc4c3c2NC(=O)N4c2ccc(Oc3ccccc3)cn2)C1 (racemic) [Example 214, N-((1RS,3RS)-3-Acrylamidocyclopentyl)-4-oxo-5-(5-phenoxypyridin-2-yl)-4,5-dihydro-3H-1-thia-3,5,8-triazaacenaphthylene-2-carboxamide] | 14.1 |
| C=CC(=O)N[C@@H]1CCC[C@@H](NC(=O)c2sc3nccc4c3c2NC(=O)N4c2ccc(Oc3ccccc3)cn2)C1 (racemic) [Example 216, N-((1RS,3RS)-3-Acrylamidocyclohexyl)-4-oxo-5-(5-phenoxypyridin-2-yl)-4,5-dihydro-3H-1-thia-3,5,8-triazaacenaphthylene-2-carboxamide] | 36.3 |
| N[C@@H]1CC[C@H](NC(=O)c2sc3nccc4c3c2NC(=O)N4c2ccc(Oc3ccccc3)nc2)C1 (racemic) [Example 289, racemic cis N-((1RS,3RS)-3-Aminocyclopentyl)-4-oxo-5-(6-phenoxypyridin-3-yl)-4,5-dihydro-3H-1-thia-3,5,8-triazaacenaphthylene-2-carboxamide] | 1700 |
| N[C@H]1CC[C@H](NC(=O)c2sc3nccc4c3c2NC(=O)N4c2ccc(Oc3ccccc3)nc2)C1 (racemic) [Example 290, racemic trans N-((1RS,3RS)-3-Aminocyclopentyl)-4-oxo-5-(6-phenoxypyridin-3-yl)-4,5-dihydro-3H-1-thia-3,5,8-triazaacenaphthylene-2-carboxamide] | 2240 |
